In US20150164762A1, “USE OF ETHANOLAMINE PHOSPHATE” (priority 2012, published 2015):

Assays:
[1] = test system: THP-1; test: WST-8 proliferation test, THP-1 floating cells; assay type: cell-based, human; conditions: 0% FBS, 72 hours, high concentrations of 125 μM or more
Procedure: THP-1 (human acute monocytic leukemia cells) and HL-60 (human myeloid leukemia cells) were logarithmically growth cultured in 10% FBS RPMI-1640 to 2 to 10×10^5 cells/cm^2 to achieve logarithmic growth before EP administration. The cell culture liquid was then centrifuged and precipitated at 1000 rpm, and 90 μl per well was dispensed onto a 96-well plate to 2×10^4 cells/cm^2 in 0% FBS RPMI-1640. […] For the WST-8 assay of the floating cells, 10 μl per well of WST-8 assay reagent was added directly to the cell suspension during culture, and after 1 hour absorbance at 450 nm and 600 nm was measured with a plate reader and the data were analyzed as in the examples above.

[2] = test system: HHDPC cells; test: WST-8 proliferation test, primary normal human hair dermal papilla cells (HHDPC)
Procedure: HHDPC cells (Cosmo Bio) were seeded to 1×10^4 cells/cm^2 on a 96-well plate. Complete MSCM medium (500, ScienCell) was used as the medium. After 24 hours, the cells were washed gently with 200 μl per well of PBS, the medium was replaced with 90 μl per well of 0% FBS DMEM with 1 vol % of complete MSCM medium added thereto, and the cells were cultured for 24 hours. After culture, 10 μl per well of EP solution was added, and a proliferation test (WST-8 assay) was performed 6 days after EP administration. The WST-8 assay was performed as in Example 1. The same test was performed using minoxidil, which has a clinical hair growth effect.

[3] = test system: BEAS-2B cells; test: WST-8 proliferation test, BEAS-2B cells at different FBS concentrations; assay type: cell-based, human
Procedure: 10% FBS RPMI-1640 was used as the medium. […] Following medium replacement, 10 μl/well of EP solution was added. A proliferation test (WST-8 assay) was performed after 96 hours. The operations of the WST-8 assay were as follows.
(1) The medium was removed from the 96-well plate by decantation and tapping.
(2) WST-8 reagent (Dojindo) was mixed to a ratio of 1:10 with serum-free medium (RPMI-1640) that had been warmed in advance at 37° C., and added to the wells from which the medium had been removed.
(3) A color reaction was performed for 1 hour in a CO2 incubator, and absorbance at 450 nm and 650 nm was measured with an absorbance plate reader.
(4) Absorbance at 450 nm-absorbance at 650 nm was calculated for purposes of correction between plates.
(5) The average of the 4 blank wells was subtracted from the corrected value of all wells, and the result was given as the relative corresponding cell number.

[4] = test system: NHLF cells; test: WST-8 proliferation test, primary normal human lung fibroblasts (NHLF); assay type: cell-based; conditions: 0% FBS DMEM, 124 hours
Description: 10% FBS-DMEM was used as the medium.

[5] = test system: BEAS-2B; test: Proliferative effects of EP and its metabolic derivatives (WST-8); assay type: cell-based, human; conditions: 0.1% FBS, 72 hours
[6] = test system: HEKa cells; test: Transepithelial electrical resistance (TER), HEKa; assay type: cell-based, human; conditions: 1 mM EP
Procedure: HEKa cells were seeded to 6×10^4 cells/cm^2 on a cell culture insert (353104, BD Falcon). Culture was performed in complete medium consisting of HKGS Kit (S-001-K, Invitrogen) added to Epilife basal medium (M-EPI-500-CA, Invitrogen), and once confluence was reached, a medium containing […] the specific compounds listed under Conditions 1 to 3 above was substituted for the complete medium, and medium replacement was performed once a day. TER was measured as in Example 11.

[7] = test system: TNF-α; test: ELISA of TNF-α secreted from THP-1 cells, with or without LPS; assay type: cell-based, human
Procedure: Human monocytic cultured THP-1 cells were cultured logarithmically as follows in 10% FBS RPMI-1640 growth culture. Cells were seeded to 4×10^5/ml on a 24-well plate (500 μl/well), additional growth culture containing EP was added, and finally the EP concentration was adjusted to the target concentration (0.1 mM, 1 mM). 2 hours after EP administration, further growth medium containing lipopolysaccharides (LPS) was added, and adjusted to concentrations of 0.1 μg/ml and 1 μg/ml.
4 hours and 24 hours after lipopolysaccharide administration, the medium was collected, the cells were precipitated by centrifugation, and the supernatant was used as an ELISA sample. As in the Singh et al. report, the inflammatory cytokine TNF-α and the chemokine IL-8, which attracts inflammatory cells, were used as ELISA measurement indicators.

[8] = test system: Calu-3 cells; test: Transepithelial electrical resistance (TER), Calu-3; assay type: cell-based, human; conditions: 1 mM EP, 0.1% FBS
Procedure: Calu-3 cells were seeded to 3×10^5 cells/cm^2 on a cell culture insert (353104, BD Falcon). They were cultured until confluent in 10% FBS RPMI-1640, and once confluence was reached, 0.1% FBS RPMI-1640 containing the following was substituted, and the medium was replaced every day. TER was measured as in Example 11. The results are shown in FIG. 15. • Condition 1: Control • Condition 2: 1 μM dexamethasone • Condition 3: 1 mM EP

[9] = test system: HEK 293; test: WST-8 proliferation test, HEK 293 immortalized model cells; assay type: cell-based, human; conditions: 0% FBS, 96 hours, even at high concentrations
Procedure: (§1) 0% FBS RPMI-1640 was used as the medium. 24 hours after seeding the cells were washed with 20 μl per well of PBS, and the medium was replaced with 0% FBS RPMI-1640. Following medium replacement, EP solution with 10 times the set concentration was added 10 μl per well, and a proliferation test (WST-8 assay) was performed 96 hours after addition of EP.

[10] = test system: HEKa cells; test: WST-8 proliferation test, primary normal keratinocytes (HEKa); assay type: cell-based, human; conditions: Epilife basal medium, 21 days
Procedure: HEKa cells (Takara Bio) were seeded to 2×10^4 cells/cm^2 on a 48-well plate. Epilife basal medium (M-EPI-500-CA, Invitrogen) with HKGS Kit (S-001-K, Invitrogen) as an added factor was used as the medium. This HKGS Kit contains bovine pituitary extract, bovine insulin, hydrocortisone, bovine transferrin and human EGF.

[11] = test system: A549; test: WST-8 proliferation test, A549 cancer cells; assay type: cell-based, human; conditions: 0% FBS, 96 hours, even at high concentrations
Procedure: as §1

In the case of `NCCOP(=O)(O)O` [EP, Ethanolamine phosphate], the cell proliferation effect [1] is reported as “small cell proliferation effect”, the “effective concentration range for proliferative effect” value ([2]; 6 days) is reported as “very broad concentration range” and the proliferative effect ([2]; 6 days) is reported as “equal to or greater than that of minoxidil”. The cell toxicity ([2]; high concentrations) was “non-toxic”, the “proliferation of BEAS-2B cells” value ([3]; 0-0.5% FBS, 96 hours) was “dependent on EP concentration” and the “toxicity attributable to EP” value ([3]; high-concentration range (mM level)) was “no obvious toxicity”. The “cell proliferation, ratio relative to control using 0 μM EP” value ([3]; medium contains no FBS, 96 hours) was no more than 11 times, the growth-stimulating effect [4] was “growth-stimulating effect” and the proliferative action [5] was “dose-dependent proliferative action”. The “rise in TER value relative to the control” value [6] was 2.3 fold, the “secretion of LPS-induced TNF-α” value ([7]; 4 hours and 24 hours of stimulus, EP 0.1 mM, 1 mM) was “dose-dependently suppressed” and the “amount of TNF-α induced by LPS stimulus” value ([7]; LPS 1 μg/ml, 24 hours of stimulus, EP 1 mM) was “about 70 pg/ml”. The “TNF-α secretion, reduced to % of untreated” value ([7]; cells not treated with LPS, 26 hours, 1 mM EP) was “about 78%”, the “rise in TER value relative to the control” value [8] was 2.0 fold and the cell proliferation ability [9] was “absolutely no cell proliferation ability”. The growth-stimulating effect [10] was “growth-stimulating effect”, the “minimum concentration giving roughly the maximum growth-stimulating effect” value [10] was 15.6 µM and the cell proliferation ability [11] was “absolutely no cell proliferation ability”.
